Data: patent publication US20260167742A1, “METHOD FOR TREATING GASTRIC CANCER BY COMBINING ANTI-HER2 ANTIBODY AND CHEMOTHERAPEUTIC AGENT, AND USE” (SHANGHAI HENLIUS BIOTECH, INC., priority 2023, published 2026)

Columns and labels:
Type in all cases: cell-based, human
[1] = system: gastric cancer cells NCI-N87; assay: HER2 internalization (endocytosis) assay, pHrodo Green staining, flow cytometry; settings: 10 μg/mL
Method: (§1) A HER2 internalization assay was performed using pHrodoiFL Green STP ester amine reactive dye (P35369, Invitrogen). […] After a short wash with a wash buffer to remove unbound antibodies, one group of cells was placed on ice for freezing to stop internalization, and the remaining cells were placed in a 37° C. incubator for further incubation. After the co-incubation with the antibody, the cells were fixed with a fixation buffer (420801, Biolegend) for 30 min. Finally, all stained cells were washed with a staining buffer and analyzed on the CytoFLEX LX flow cytometer (Beckman Coulter, USA).

[2] = system: gastric cancer cells SNU216; assay: as above; settings: 10 μg/mL
Method: as §1

NCI-N87 cells = assay: Apoptosis assay (Caspase-Glo 3/7); settings: 24 h treatment
Method: The apoptosis was assessed by measuring the activity of caspases 3/7 in gastric cancer NCI-N87 cells using the Caspase-Glo®3/7 Assay system. A xenograft human gastric cancer NCI-N87 model and a human gastric cancer PDX model were treated with the antibodies at given doses. All data are presented as mean±SEM. The p values were calculated using Student's t test. ** denotes p<0.01, and * denotes p<0.05.
The apoptosis was assessed by measuring the activity of caspases 3/7 in NCI-N87 cells using the Caspase-Glo®3/7 Assay (G8093, Promega) system. The cells were seeded in a 96-well plate (CLS3799, Corning) at about 1.5×10^4 cells/well and incubated overnight. The original medium was replaced with a drug-containing culture medium of 100 μL, and the cells were treated for 24 h. After an incubation at room temperature for 30 min, 100 μL of Caspase-Glo 3/7 reagent was added. The plate was incubated in the dark for 30 min and detected using Spark (Tecan, Switzerland) after gentle shaking.

pertuzumab: antibody comprising heavy chain SEQ ID NO: 13 and light chain SEQ ID NO: 14 [reference compound]
HER2 internalization (endocytosis) [1]: weak endocytosis | HER2 internalization (endocytosis) [2]: weak endocytosis | apoptosis (caspases 3/7 activity) (NCI-N87 cells): did not significantly induce the apoptosis of NCI-N87 cells
